# In patent US20100055168A1, “CATIONIC LIPIDS AND USES THEREOF” (ABBOTT LABORATORIES, priority 2008, published 2010):
# Key:
# [1] = Ribogreen assay for siRNA encapsulation efficiency of Lipid-Based Particles; assay type: physicochemical; conditions: Lipid:siRNA 25:1
# Method: The mixing solution of cationic lipids, cholesterol, non-cationic lipids and PEG-lipids was prepared in ethanol (total concentration at 10 mg/mL). siSTABLE (purchased from ThermoFisher) (sense-5′ GGGGAAAGCUGGCAAGAUUUU-3′ SEQ ID NO: 1) antisense-5′-AAUCUUGCCAGCUUUCCCCUU-3′ SEQ ID NO: 2) % stock solution was prepared in 10 mg/mL of solution by dissolving 10 mg siRNA in 1 mL of RNAse-free UltraPure Water. The calculated amount of siRNA solution was added to 1 mL of citrate buffer (pH 4.0, 20 mM), to provide an siRNA concentration of 0.2 mg/mL, and warmed to 60° C. The calculated amount of lipid solution was warmed to 60° C., transferred to a 0.5 mL syringe with 28½ gauge needle, and injected into the citrate buffer with stirring at 60° C. After 3 minutes, 3 mL of PBS solution at room temperature (pH 7.4) was added into the lipid mixture with stirring. The Lipid-Based Particle solution was cooled to room temperature.
# (§1) The siRNA concentrations were measured using Quanti-iT RiboGreen RNA reagent (Molecular Probes, (R11490)). Vesicle sizes were characterized by dynamic light scattering with a DynaPro™ Plate Reader (Wyatt Technology) in 96-well half-area UV plate (Coring) after diluting the formulation sample (20 μL) in phosphate buffered saline (80 μL) at a pH of about 7-8. A 1% agarose gel-based assay was used for analyzing nuclease degradation and protection. Encapsulation efficiency (EE) was calculated using data obtained from a RiboGreen assay.
# RNA concentration and encapsulation efficiency were determined using a Quant-iT® Ribogreen RNA reagent and kit available from Invitrogen. The siRNA was released from the Lipid-Based Particle using one of the following reagents: ethanol, Triton X-100, or phenol/chloroform. The siRNA concentration is quantified using fluorescent reading at 480 nm/520 nm.
# (§2) A round bottom flask was submerged into a 65° C. water bath. Citrate buffer (37.5 ml) of pH 4.0 was pipetted into the flask. The solution was stirred by a magnetic stirring bar at a speed of 900 rpm. Both the pH 4.0 citrate buffer and the lipid solution were pre-warmed in the 65° C. water bath for about 3 minutes. A siRNA solution (0.5 ml) was pipetted into the pH 4.0 citrate buffer. The 12.5 ml lipid mixture solution was injected through a 27 gauge needle into the citrate buffer in about 30 seconds. The needle tip was inserted into the solution during the injection. The resulting solution was stirred for 5 minutes at a speed of 900 rpm. The flask was pulled up from the water bath and a 50 ml pH 7.4 PBS buffer was added into the flask. The final solution was further mixed at a speed of 900 rpm for 5 minutes. For the diafiltration process, a dialysis filter (Millipore, 100K, Cat #PXB100C50) was used to remove ethanol in the above solution. When the volume was reduced to 20 ml during the initial diafiltration, 20 ml of pH 7.4 PBS was added to the sample solution. The diafiltration was continued until the volume was reduced to 20 ml. The diafiltration process was repeated 4 times. The volume of the sample solution was reduced to about 12 ml and pH 7.4 PBS was added to make the final volume of 15 ml. The 15 ml solution was filtered sequentially through the 0.45 and 0.22 μm sterile PVDF membrane filters (Millipore) and immediately transferred into a sterile vial.
# [2] = Particle sizing assay of in vitro formulations (dynamic light scattering, DynaPro plate reader); assay type: physicochemical; conditions: in vitro formulation b: Cationic lipid/PEG-Chol/DSPC/Chol 45/10/15/30 wt %, Lipid:siRNA 25:1
# Method: as §1
# Particle sizes and size distributions (PDI) were characterized by using dynamic light scattering (DLS). A DLS plate reader (Dynapro™, Wyatt Technology) was used for the DLS measurement. This DLS plate reader uses an 830 nm laser and the scattering angle is 158°. It also can control temperature from 4° C. to 70° C. A 96-well format was employed for the samples.
# Samples for DLS analysis were prepared by mixing 20 μL of each sample stock solution with 80 μL PBS directly in the 96-well plate (#3697, Coming). Sample mixing was accomplished using a microplate shaker (Orbis, Mikura Ltd.). Plates were read at 20° C. with an acquisition time of 50 seconds for each sample, and data was analyzed with Wyatt Technology's Dynamics V6 software. To rule out potential multiple scattering artifacts, a second plate at […] reduced sample concentrations was independently prepared by mixing 5 μL stock solutions with 95 μL PBS. Under our experimental conditions the results at the two concentrations were very similar, and the final reported result for each sample represents the average of values obtained from the two plates.
# [3] = Particle sizing assay of in vivo formulations (Zetasizer Nano ZS); assay type: physicochemical; conditions: Lipid:siRNA 25:1
# Method: as §2
# For measurements of particle sizes and size distributions (PDI), lipid-based particles were prepared as described above. The particle solution (60 μL) was pipetted into a disposable cuvette (UVette, Eppendorf, cat #952010051) and measured in the “General Purpose” mode. Attenuator and position were optimized by the device. Measurements were performed using a Zetasizer Nano ZS (Malvern Instruments) equipped with a 4 mW He—Ne laser at a wavelength of 633 nm at 25° C. Scattered light was detected at a 173° backward scattering angle. The viscosity and refractive index of water at 25° C. was used for data analysis with the Dispersion Technology Software 5.00 (Malvern Instruments).
# [4] = system: β-galactosidase in tumor sections; test: IHC analysis of β-galactosidase staining in intraliver tumor sections after i.v. dosing of Lipid-Based Particles; assay type: in vivo, Scid female mice; set-up: key: −: there was no staining, a small area of weak staining, or disperse strong single cell staining; ±: there was 5% of the section with weak staining or one patch of strong staining; +: there was 15% of the section with strong staining; ++: there was ˜50% of the section with strong straining; +++: there was 80% of the section with strong straining; ++++: the whole section had strong staining; conditions: intraliver tumor model, Scid mice, tail vein (i.v) injection
# Method: The animal studies were carried out in accordance with internal Institutional Animal Care and Use Committee (IACUC) guidelines at Abbott Laboratories. Scid female mice at 6 to 8 weeks of age were obtained from Charles River Laboratory and used for […] tumor models. Mouse livers were exposed by vertical incision on mouse abdomens and the tumor cells were directly injected into the livers. The incision was closed by suture and wound clips. All cell lines used for creating xenograft tumors were subjected to the IMPACT profile I test (18 agents) at the University of Missouri Research Animal Diagnostic and Investigative Laboratory, and all cell lines were found negative for the 18 infectious agents tested. Tumor cells were suspended in a 1:1 mixture of S-MEM (Invitrogen, Carlsbad, Calif.) and matrigel (BD Bioscience, San Jose, Calif.) and inoculated at 1×10E6 cells per animal. Treatments were started 3 4 weeks after tumor inoculation. Formulated or unformulated siRNAs were administrated via tail vein (i.v) injection. IHC was carried out as previously described [Li, L., et al., Evaluating hypoxia-inducible factor-1alpha as a cancer therapeutic target via inducible RNA interference in vivo. Cancer Res, 2005. 65(16): p. 7249-58]. Briefly, tumors were excised, cut into pieces of less than 3 mm in thickness and immediately fixed in buffered formalin solution with neutral pH (Sigma, St. Louis, Mo.). The formalin-fixed and paraffin-embedded tumor sections were then used for staining. The mouse anti-β-galactosidase mAb (Promega, Madison, Wis.) was used to detect β-galactosidase in tumor sections. […] IHC images were acquired using the Nikon TE2000 inverted microscope. The β-galactosidase staining was evaluated by 2 people independently based on the scoring system listed below. The average of the score was calculated for each tumor.
# [5] = in vitro formulation b: Cationic lipid/PEG-Chol/DSPC/Chol 45/10/15/30 wt %
# [6] = in vivo formulation C: Cationic lipid/Pal-PEG-Cera/DSPC/Chol 45/10/15/30 wt %
# [7] = in vivo formulation A: Cationic lipid/Example 58/DSPC/Chol 45/10/15/30 wt %
SMILES,"% Encapsulation Efficiency [1, 5] [%]","% Encapsulation Efficiency [1, 6] [%]",Size [2] [nm],"PDI (size distribution) [3, 7]","Size [3, 7] [nm]","PDI (size distribution) [3, 6]","Size [3, 6] [nm]","% Encapsulation Efficiency [1, 7] [%]","In vivo Response (β-galactosidase IHC staining score) ([4]; column 1 (individual tumor, head not explained))","In vivo Response (β-galactosidase IHC staining score) ([4]; column 2 (individual tumor, head not explained))","In vivo Response (β-galactosidase IHC staining score) ([4]; column 3 (individual tumor, head not explained))","In vivo Response (β-galactosidase IHC staining score) ([4]; column 4 (individual tumor, head not explained))","In vivo Response (β-galactosidase IHC staining score) ([4]; column 5 (individual tumor, head not explained))","In vivo Response (β-galactosidase IHC staining score) ([4]; column 6 (individual tumor, head not explained))"
"CCCCC/C=C\C/C=C\CCCCCCCCOCC(COCCCCCCCC/C=C\C/C=C\CCCCC)N1CCN(C)CC1 [Example 4, 1-methyl-4-(2-((9Z,12Z)-octadeca-9,12-dienyloxy)-1-(((9Z,12Z)-octadeca-9,12-dienyloxy)methyl)ethyl)piperazine]",96.7,–,125.6,0.2,149,–,–,72.6,–,–,–,–,–,–
"CCCCC/C=C\C/C=C\CCCCCCCCOCC(COCCCCCCCC/C=C\C/C=C\CCCCC)NCCCN1CCCC1 [Example 6, N-(2-((9Z,12Z)-octadeca-9,12-dienyloxy)-1-(((9Z,12Z)-octadeca-9,12-dienyloxy)methyl)ethyl)-N-(3-pyrrolidin-1-ylpropyl)amine]",84.2,–,132.6,0.145,121,–,–,75.5,–,–,–,–,–,–
C[C@H]1c2cccc(O)c2C(=O)C2=C(O)[C@]3(O)C(=O)C(C(N)=O)=C(O)[C@@H](N(C)C)[C@@H]3[C@@H](O)[C@@H]21 [Doxycycline],–,–,–,–,–,–,–,–,+++,+++,+++,+++,+++,+++

# Further lines, with some results ahead:
"% Encapsulation Efficiency [1, 5] [%]","% Encapsulation Efficiency [1, 6] [%]",Size [2] [nm],"PDI (size distribution) [3, 7]","Size [3, 7] [nm]","PDI (size distribution) [3, 6]","Size [3, 6] [nm]","% Encapsulation Efficiency [1, 7] [%]",SMILES,"In vivo Response (β-galactosidase IHC staining score) ([4]; column 1 (individual tumor, head not explained))","In vivo Response (β-galactosidase IHC staining score) ([4]; column 2 (individual tumor, head not explained))","In vivo Response (β-galactosidase IHC staining score) ([4]; column 3 (individual tumor, head not explained))","In vivo Response (β-galactosidase IHC staining score) ([4]; column 4 (individual tumor, head not explained))","In vivo Response (β-galactosidase IHC staining score) ([4]; column 5 (individual tumor, head not explained))","In vivo Response (β-galactosidase IHC staining score) ([4]; column 6 (individual tumor, head not explained))"
91.8,91.8,130,0.15,123,0.128,119,–,"CCCCC/C=C\C/C=C\CCCCCCCCOCC(COCCCCCCCC/C=C\C/C=C\CCCCC)NCCN(C)C [Example 7, N,N-dimethyl-N′-(2-((9Z,12Z)-octadeca-9,12-dienyloxy)-1-(((9Z,12Z)-octadeca-9,12-dienyloxy)methyl)ethyl)ethane-1,2-diamine]",–,–,–,–,–,–
95.8,98.9,116.8,0.13,138,0.104,87,–,"CCCCC/C=C\C/C=C\CCCCCCCCOCC(COCCCCCCCC/C=C\C/C=C\CCCCC)NCCc1c[nH]cn1 [Example 9, N-(2-(1H-imidazol-4-yl)ethyl)-N-(2-((9Z,12Z)-octadeca-9,12-dienyloxy)-1-(((9Z,12Z)-octadeca-9,12-dienyloxy)methyl)ethyl)amine]",–,–,–,–,–,–
